Here are results for 1 compound from PMC12461739, “Multi-targeted azacoumarin–cyanocinnamate hybrids induce G2/M arrest and apoptosis via tubulin, and COX-2/VEGFR modulation: insights from in vitro mechanistic basis and in vivo validation” (RSC Medicinal Chemistry, 2025).

Values joined by “and” are separate entries in the source; they are usually repeats but may differ in a detail not shown here. Identical values can stand only once. Like-named read-outs stand apart in the source and are kept apart here.

In data set [1] the test system is MCF-7 cells. As to the kind of experiment: Annexin V-FITC/PI apoptosis assay. Conditions: MCF-7, IC50 concentration, 24 h. Type of data set: cell-based, human. The protocol:
Apoptotic cell death was quantified using annexin V-FITC and propidium iodide (PI) staining, in accordance with the manufacturer's instructions (BioVision, USA; Cat No. K101-25), with minor protocol adjustments. MCF-7 cells were plated at a density of 2 × 10^5 cells per well in DMEM-containing supplements and incubated overnight at 37 °C in a humidified atmosphere with 5% CO2. […] After treatment, cells were harvested using 0.25% trypsin–EDTA, rinsed twice with ice-cold phosphate-buffered saline (PBS), and resuspended in 500 μL of annexin V binding buffer. To each sample, 5 μL of annexin V-FITC and 5 μL of propidium iodide (PI) were then added for staining. The staining mixture was incubated in the dark for 15 minutes at room temperature. Samples were analyzed on a BD FACSCalibur™ flow cytometer (BD Biosciences, USA). Fluorescence was detected using the FL1 channel (530 nm) for annexin V-FITC and the FL2 channel (585 nm) for PI. Quadrant gating was used to distinguish between viable cells (annexin V^−/PI^−), early apoptotic cells (annexin V^+/PI^−), late apoptotic cells (annexin V^+/PI^+), and necrotic cells (annexin V^−/PI^+).

Data set [2] concerns MCF-7 cells. As to the kind of experiment: MTT antiproliferative assay, MCF-7. Conditions: MTT, 48 h treatment, read-out: IC50, antiproliferative activity toward MCF-7. Type of data set: cell-based, human. The protocol: (§1) The cytotoxic effects of the synthesized compounds were evaluated using the MTT assay. MCF-7, MDA-MB 231 (human breast cancer), and MCF-10A (non-tumorigenic breast epithelial) cells were seeded (1–3 × 10^4 cells per well) and incubated for 24 hours at 37 °C in a humidified atmosphere containing 5% CO2.[74] Following incubation, cells were treated with serial dilutions of the test compounds prepared in DMSO. The final concentration of DMSO in all wells, including controls, was maintained below 0.5% v/v to avoid solvent-related cytotoxicity. Doxorubicin was used as a positive control for comparison of antiproliferative activity. Following 48 hours of treatment, the culture medium was gently removed, and each well received 20 μL of MTT reagent (5 mg mL^−1 in phosphate-buffered saline). The plates were incubated at 37 °C for 4 hours to facilitate the enzymatic reduction of MTT into formazan by metabolically active cells. After incubation, the solution was discarded, and 100 μL of dimethyl sulfoxide was added. The absorbance of each well was measured at 570 nm using a microplate spectrophotometer. Cell viability was determined by comparing absorbance values to those of the untreated controls and expressed as a percentage. GraphPad Prism software was used to plot dose–response curves and calculate IC50 values.

Data set [3] is described as follows: Kidney histopathology (H&E). Conditions: compound 7 + EAC.
From the text: Additionally, liver and kidney tissues were excised from each animal for further evaluation. […] The second portion was fixed in 10% neutral buffered formalin for histopathological examination to assess tissue morphology and damage.[96,97]
Liver and kidney tissues were collected from all experimental groups at the end of the study and immediately fixed in 10% neutral buffered formalin. After fixation, the samples were dehydrated, embedded in paraffin, and sectioned at a thickness of 5 μm using a rotary microtome. […] Histopathological examination of renal tissue focused on identifying acute tubular injury (ATI), characterized by tubular epithelial cell flattening, necrosis, apical vacuolization, and loss of the brush border. These features were assessed using a semi-quantitative scoring system.[110] Hepatic tissue sections were evaluated for the severity of hepatocellular injury using a modified Brunt grading system, which includes assessment of hepatocyte ballooning, necrosis, inflammation, and other degenerative changes.
For the next data set, the system named is VEGFR-II. As to the kind of experiment: Serum VEGFR-II ELISA. Background: An ELISA detects its analyte on a solid surface through an enzyme-linked reagent.
Another data set has as its system Bcl-2. As to the kind of experiment: qRT-PCR gene expression, Bcl-2. The class given is cell-based, human. Conditions: MCF-7, 7.653 μM, 24 h. How it is done:
(§2) Untreated cells served as negative controls. RNA concentration and purity were verified spectrophotometrically prior to cDNA synthesis. Complementary DNA (cDNA) was synthesized from purified RNA using the RT^2 First Strand Kit (Qiagen, Valencia, CA, USA) following the supplied protocol. Quantitative real-time PCR (qRT-PCR) was performed on a Corbett Rotor-Gene 6000 system (Qiagen, USA) using the RT^2 SYBR® Green ROX™ FAST Master Mix (Qiagen). Each 25 μL reaction contained 12.5 μL of master mix, 1 μL of gene-specific primers (RT^2 qPCR Primer Assays, Qiagen), 1 μL of cDNA template, and 10.5 μL of RNase-free water. Gene-specific primers were selected using the PrimerBank database for BAX, BCL2, and TP53, along with GAPDH as the endogenous control (Table S3). Thermal cycling conditions were set as follows: initial enzyme activation at 95 °C for 10 minutes, followed by 40 cycles of denaturation at 95 °C for 15 seconds, and annealing at 60 °C for 30 seconds. Amplification specificity was confirmed by melting curve analysis. Gene expression levels were normalized to GAPDH mRNA as the internal reference, and relative quantification was performed using the ΔΔCt method. […] Statistical analysis was performed using GraphPad Prism software, with p < 0.05 considered statistically significant.[79]

The test system of the next data set is Bax. As to the kind of experiment: qRT-PCR gene expression, Bax. Type of data set: cell-based, human. Conditions: MCF-7, 7.653 μM, 24 h. The protocol: as §2
For orientation: In qPCR the cycle at which signal appears reflects the starting amount.

The test system of a further data set is MDA-MB 231 cells. As to the kind of experiment: MTT antiproliferative assay, MDA-MB 231. As to conditions: Homo sapiens, MDA-MB-231, 48 h, MTT, 48 h treatment; read-out: IC50, antiproliferative activity toward MDA-MB 231. Type of data set: cell-based, human. How it is done:
as §1
(Formazan colour is commonly taken as a measure of viable cells.)

The test system of a further data set is TNF-α. As to the kind of experiment: Serum TNF-α ELISA.
For data set [4], the system named is MCF-7 cells. As to the kind of experiment: Cell cycle analysis (PI flow cytometry). As to conditions: MCF-7, 7.653 μM (IC50), 24 h. Type of data set: cell-based, human. How it is done: Cell cycle progression was examined using a propidium iodide (PI)-based staining protocol, adapted from standard manufacturer instructions and previously described methods. MCF-7 cells were seeded at a density of 2 × 10^5 cells per well in DMEM and incubated overnight under standard conditions (37 °C, 5% CO2). […] A DMSO-treated group served as the vehicle control. After treatment, cells were collected, washed twice with cold phosphate-buffered saline (PBS), and centrifuged at 2000 rpm for 5 minutes. The pellets were fixed in pre-chilled 70% ethanol and stored at −20 °C for 2 hours. After fixation, cells were washed again with PBS, centrifuged, and resuspended in PI/RNase staining solution. Samples were incubated for 30 minutes at 37 °C in the dark to allow for RNA degradation and proper DNA staining. Flow cytometric analysis was conducted using a BD FACSCalibur™ system (BD Biosciences, USA). PI fluorescence was detected using a 488 nm excitation laser and collected through the FL2 channel (585 nm bandpass filter). Cell cycle phase distribution (G0/G1, S, and G2/M) was analyzed using dedicated software.

Method for TNF-α: (§3) All animals were maintained under conventional laboratory conditions, including a controlled temperature of 22 ± 2 °C and a 12 hour light/dark photoperiod, with continuous access to standard pellet chow and water. On day 11, following the final treatment, ascitic fluid was collected from the peritoneal cavity using heparinized syringes for EAC cell viability and count analysis. Blood samples were collected under light ether anesthesia via the retro-orbital venous plexus and centrifuged at 3000 rpm for 10 minutes. The resulting serum was separated and stored at −20 °C for biochemical analysis.
Briefly, 96-well microplates pre-coated with a TNF-α-specific capture antibody were loaded with standards and serum samples, followed by incubation to allow antigen binding. After washing, a biotin-labeled detection antibody was added, followed by an avidin–HRP conjugate to amplify the signal. The enzymatic reaction was developed using a TMB substrate and stopped with an acidic solution. Absorbance was measured at 450 nm using the ELISA microplate reader. TNF-α concentrations were calculated by plotting sample absorbance values against a standard curve and expressed in pg mL^−1. All measurements were performed in triplicate, and data were presented as mean ± SD.
Method for VEGFR-II: as §3
Serum VEGFR-2 levels were quantified using a rat VEGFR-2 ELISA kit (Cusabio®, China; Catalog No. CSB-E07348r), based on a quantitative sandwich enzyme immunoassay format. Samples were added to 96-well plates pre-coated with a monoclonal antibody specific for VEGFR-2 and incubated to enable antigen binding. After washing to remove unbound material, a biotin-conjugated detection antibody was added, followed by an avidin–HRP complex. The enzymatic reaction was developed using TMB substrate and stopped with an acidic solution. Absorbance was measured at 450 nm using a microplate reader. The VEGFR-2 concentrations in the samples were calculated using a standard curve fitted with a four-parameter logistic (4-PL) regression model and expressed in nanograms per milliliter (ng mL^−1).

For the compound `CCOC(=O)/C(C#N)=C/c1ccc(Oc2c(C)c3cc(Br)c(O)c(Br)c3[nH]c2=O)cc1` [Compound 7, ethyl (E)-2-cyano-3-(4-((6,8-dibromo-7-hydroxy-4-methyl-2-oxo-1,2-dihydroquinolin-3-yl)oxy)phenyl)acrylate], the late apoptotic cells in the data set with MCF-7 cells [1] (control 0.12%) turned out to be 8.41%. The compound also returned an early apoptotic cells in the data set on MCF-7 cells [1] (control 0.37%) of 15.36%. Also, the necrotic cell population with MCF-7 cells [1] (control 2.22%) was 3.57%. Further, the IC50 with MCF-7 cells [2] (Homo sapiens, MCF7, 48 h) is 7.65 µM; in the data set on MCF-7 cells [2] it was 7.65 µM and 7.6 µM; with MDA-MB 231 cells it was 9.7 ± 1.15 µM. Also, the nephropathy class result in data set [3] is on record as “class II”. For the same compound, in data set [3] (EAC group approximately 25%), the glomerular involvement is recorded as 15%. Besides, the “serum VEGFR-II” value is 30.66 ± 1.31 ng/mL in the data set with VEGFR-II (EAC + compound 7 (10 mg kg^−1 i.p.), EAC control 85.61 ± 2.47) and 14.03 ± 0.45 ng/mL with VEGFR-II (compound 7-only control group, no EAC, untreated 18.23 ± 0.81). Moreover, in the data set with Bcl-2, the “Bcl-2 expression relative to untreated control” value is reported as 0.312 fold. The “Bax expression relative to untreated control” value with Bax stood at 5.22 fold. In addition, the “serum TNF-α” value amounted to 56.42 ± 2.01 pg/mL in the data set on TNF-α (EAC + compound 7 (10 mg kg^−1 i.p.), EAC control 156.80 ± 4.71) and 29.37 ± 1.33 pg/mL in the data set with TNF-α (compound 7-only control group, no EAC). In addition, the “cells in G2/M phase” value in the data set with MCF-7 cells [4] (control 7.57%) is reported as 36.21%. In the data set with MCF-7 cells [4] (control 21.08%), the S-phase cells turned out to be 15.75%.

Usually IC50 stands for the point on the concentration scale where inhibition reaches its midpoint.
